Patent publication US20240174618A1, “SUBSTITUTED (2-HETEROARYLOXYPHENYL)SULFONATES, SALTS THEREOF AND THEIR USE AS HERBICIDAL AGENTS” (Bayer Aktiengesellschaft, priority 2021, published 2024)

Tests used:
Type in all cases: in vivo
[1] = test system: Triticum aestivum (TRZAS); assay: F. Post-emergence effect on useful plants, TRZAS; conditions: useful plant
Description: (§1) Seeds of monocotyledonous and dicotyledonous weeds and crop plants were placed in sandy loam in plastic or organic planting pots, covered with soil and cultivated in a greenhouse under controlled growth conditions. 2 to 3 weeks after sowing, the test plants were treated at the one-leaf stage. The compounds of the invention, formulated in the form of wettable powders (WP) or as emulsion concentrates (EC), were then sprayed onto the green parts of the plants as aqueous suspension or emulsion with addition of 0.5% additive at a water application rate of 600 l/ha (converted). After the test plants had been kept in the greenhouse under optimum growth conditions for about 3 weeks, the activity of the preparations was rated visually in comparison to untreated controls.
(§2) For example, • 100% efficacy=plants have died, • 0% action=like untreated control plants.
(§3) Tables F1a to F4 below show the effects of selected compounds of the general formula (I) according to table 1 on various useful plants at an application rate corresponding to 320 g/ha or less, which were obtained by the experimental procedure mentioned above.

Kochia scoparia (KCHSC) [2] = assay: C. Herbicidal pre-emergence efficacy, KCHSC
From the text: (§4) Seeds of monocotyledonous and dicotyledonous weed plants and crop plants were placed in plastic or organic planting pots and covered with soil. The compounds of the invention, formulated in the form of wettable powders (WP) or as emulsion concentrates (EC), were then applied to the surface of the covering soil as aqueous suspension or emulsion with addition of 0.5% additive at a water application rate equivalent to 600 l/ha (converted). After the treatment, the pots were placed in a greenhouse and kept under good growth conditions for the test plants. After about 3 weeks, the efficacy of the preparations was scored visually in comparison with untreated controls as percentages. For example, • 100% efficacy=plants have died, • 0% efficacy=like untreated control plants.
(§5) Tables C1a to C14b below show the effects of selected compounds of the general formula (I) according to table 1 on various harmful plants at an application rate corresponding to 320 g/ha or less, which were obtained by the experimental procedure mentioned above.

Viola tricolor (VIOTR) [3] = assay: E. Herbicidal post-emergence efficacy, VIOTR
Description: as §1, §2
(§6) Tables E1a to E12b below show the effects of selected compounds of the general formula (I) according to table 1 on various harmful plants at an application rate corresponding to 320 g/ha or less, which were obtained by the experimental procedure mentioned above.

[4] = test system: Amaranthus retroflexus (AMARE); assay: C. Herbicidal pre-emergence efficacy, AMARE; conditions: scored after about 3 weeks
From the text: as §4, §5

[5] = test system: Pharbitis purpurea (PHBPU); assay: E. Herbicidal post-emergence efficacy, PHBPU
Description: as §1, §2, §6

Zea mays (ZEAMX) [6] = assay: D. Pre-emergence effect on useful plants, ZEAMX; conditions: useful plant
From the text: as §4
(§7) Tables D1a to D5b below show the effects of selected compounds of the general formula (I) according to table 1 on various useful plants at an application rate corresponding to 320 g/ha or less, which were obtained by the experimental procedure mentioned above.

[7] = test system: Amaranthus retroflexus (AMARE); assay: E. Herbicidal post-emergence efficacy, AMARE
Description: as §1, §2, §6

Brassica napus (BRSNW) = assay: D. Pre-emergence effect on useful plants, BRSNW; conditions: useful plant, application rate 80 g/ha
From the text: as §4, §7

Veronica persica (VERPE) [8] = assay: E. Herbicidal post-emergence efficacy, VERPE
Description: as §1, §2, §6

Kochia scoparia (KCHSC) [9] = assay: E. Herbicidal post-emergence efficacy, KCHSC
Description: as §1, §2, §6

[10] = test system: Triticum aestivum (TRZAS); assay: D. Pre-emergence effect on useful plants, TRZAS; conditions: useful plant
From the text: as §4, §7

Viola tricolor (VIOTR) [11] = assay: C. Herbicidal pre-emergence efficacy, VIOTR
From the text: as §4, §5

[12] = test system: Polygonum convolvulus (POLCO); assay: C. Herbicidal pre-emergence efficacy, POLCO; conditions: 320 g/ha, scored after about 3 weeks
From the text: as §4, §5

[13] = test system: Echinochloa crus-galli (ECHCG); assay: E. Herbicidal post-emergence efficacy, ECHCG; conditions: application rate 320 g/ha
Description: as §1, §2, §6

Setaria viridis (SETVI) [14] = assay: E. Herbicidal post-emergence efficacy, SETVI; conditions: application rate 320 g/ha
Description: as §1, §2, §6

[15] = test system: Abutilon theophrasti (ABUTH); assay: E. Herbicidal post-emergence efficacy, ABUTH; conditions: application rate 320 g/ha
Description: as §1, §2, §6

[16] = test system: Digitaria sanguinalis (DIGSA); assay: C. Herbicidal pre-emergence efficacy, DIGSA; conditions: 320 g/ha, scored after about 3 weeks
From the text: as §4, §5

[17] = test system: Polygonum convolvulus (POLCO); assay: E. Herbicidal post-emergence efficacy, POLCO; conditions: application rate 320 g/ha
Description: as §1, §2, §6

Lolium rigidum (LOLRI) = assay: C. Herbicidal pre-emergence efficacy, LOLRI; conditions: 320 g/ha, scored after about 3 weeks
From the text: as §4, §5

[18] = test system: Abutilon theophrasti (ABUTH); assay: C. Herbicidal pre-emergence efficacy, ABUTH; conditions: scored after about 3 weeks
From the text: as §4, §5

Zea mays (ZEAMX) [19] = assay: F. Post-emergence effect on useful plants, ZEAMX; conditions: useful plant, application rate 80 g/ha
Description: as §1, §2, §3

Setaria viridis (SETVI) [20] = assay: C. Herbicidal pre-emergence efficacy, SETVI; conditions: 320 g/ha, scored after about 3 weeks
From the text: as §4, §5

[21] = test system: Echinochloa crus-galli (ECHCG); assay: C. Herbicidal pre-emergence efficacy, ECHCG; conditions: 320 g/ha, scored after about 3 weeks
From the text: as §4, §5

Veronica persica (VERPE) [22] = assay: C. Herbicidal pre-emergence efficacy, VERPE; conditions: 320 g/ha, scored after about 3 weeks
From the text: as §4, §5

[23] = test system: Alopecurus myosuroides (ALOMY); assay: C. Herbicidal pre-emergence efficacy, ALOMY; conditions: 320 g/ha, scored after about 3 weeks
From the text: as §4, §5

Glycine max (GLXMA) = assay: D. Pre-emergence effect on useful plants, GLXMA; conditions: useful plant, application rate 80 g/ha
From the text: as §4, §7

Structure (SMILES)	Post-emergence efficacy against TRZAS in % ([1]; application rate 80 g/ha) [%]	Pre-emergence efficacy against KCHSC in % (Kochia scoparia (KCHSC) [2]; application rate 320 g/ha) [%]	Post-emergence efficacy against VIOTR in % (Viola tricolor (VIOTR) [3]; application rate 80 g/ha) [%]	Post-emergence efficacy against VIOTR in % (Viola tricolor (VIOTR) [3]; application rate 320 g/ha) [%]	Pre-emergence efficacy against AMARE ([4]; 80 g/ha) [%]	Pre-emergence efficacy against AMARE ([4]; 320 g/ha) [%]	Post-emergence efficacy against PHBPU in % ([5]; application rate 80 g/ha) [%]	Post-emergence efficacy against PHBPU in % ([5]; application rate 320 g/ha) [%]	Pre-emergence efficacy against ZEAMX in % (Zea mays (ZEAMX) [6]; application rate 80 g/ha) [%]	Post-emergence efficacy against AMARE in % ([7]; application rate 80 g/ha) [%]	Post-emergence efficacy against AMARE in % ([7]; application rate 320 g/ha) [%]	Post-emergence efficacy against VERPE in % (Veronica persica (VERPE) [8]; application rate 80 g/ha) [%]	Post-emergence efficacy against VERPE in % (Veronica persica (VERPE) [8]; application rate 320 g/ha) [%]	Post-emergence efficacy against KCHSC in % (Kochia scoparia (KCHSC) [9]; application rate 80 g/ha) [%]	Post-emergence efficacy against KCHSC in % (Kochia scoparia (KCHSC) [9]; application rate 320 g/ha) [%]	Pre-emergence efficacy against TRZAS in % ([10]; application rate 80 g/ha) [%]	Pre-emergence efficacy against VIOTR in % (Viola tricolor (VIOTR) [11]; application rate 320 g/ha) [%]	also measured
N#Cc1cccc(Oc2ncc(Cl)cn2)c1OS(=O)(=O)CC1CC1(Cl)Cl (stereo not shown) [Example I-78]	0	100	90	100	100	100	90	100	0	90	100	100	100	100	100	0	100	Pre-emergence efficacy against KCHSC in % (Kochia scoparia (KCHSC) [2]; application rate 80 g/ha): 100%; Pre-emergence efficacy against ZEAMX in % (Zea mays (ZEAMX) [6]; application rate 320 g/ha): 20%; Pre-emergence efficacy against BRSNW in % (Brassica napus (BRSNW)): 20%; Pre-emergence efficacy against TRZAS in % ([10]; application rate 320 g/ha): 0%
Cc1cccc(Oc2ncc(Cl)cn2)c1OS(=O)(=O)CCC(F)=C(F)F [Example I-71]	0	100	90	100	100	100	80	90	0	90	100	80	100	100	100	0	100	Pre-emergence efficacy against POLCO [12]: 100%; Post-emergence efficacy against ECHCG in % [13]: 90%; Post-emergence efficacy against SETVI in % (Setaria viridis (SETVI) [14]): 100%; Post-emergence efficacy against ABUTH in % [15]: 100%; Post-emergence efficacy against TRZAS in % ([1]; application rate 320 g/ha): 0%; Pre-emergence efficacy against DIGSA [16]: 100%; Post-emergence efficacy against POLCO in % [17]: 100%; Pre-emergence efficacy against LOLRI (Lolium rigidum (LOLRI)): 80%; Pre-emergence efficacy against ABUTH ([18]; 80 g/ha): 80%; Pre-emergence efficacy against ABUTH ([18]; 320 g/ha): 100%; Post-emergence efficacy against ZEAMX in % (Zea mays (ZEAMX) [19]): 0%; Pre-emergence efficacy against SETVI (Setaria viridis (SETVI) [20]): 100%; Pre-emergence efficacy against ECHCG [21]: 100%; Pre-emergence efficacy against VERPE (Veronica persica (VERPE) [22]): 90%; Pre-emergence efficacy against ALOMY [23]: 80%; Pre-emergence efficacy against VIOTR in % (Viola tricolor (VIOTR) [11]; application rate 80 g/ha): 100%; Pre-emergence efficacy against GLXMA in % (Glycine max (GLXMA)): 10%
